These results are taken from US5229409A, “6-substituted-tetrahydrobenz[cd]indoles” (Eli Lilly and Company, priority 1991, dated 1993).

SMILES strings stand for the structures.

Set-up in all cases: species or system rat (male albino)
For data set [1], the system named is 5-hydroxyindole acetic acid (5HIAA). Nature of the data set: whole brain 5-hydroxyindoleacetic acid (5HIAA) concentration in vivo in rats. The method, then: In another experiment certain compounds of the Examples were evaluated to determine ability to affect the 5-hydroxyindoles serotonin and 5-hydroxyindole acetic acid (5HIAA), and serum corticosterone, in vivo. Male albino rats were injected subcutaneously with an aqueous solution of the compound. The pH of the solution was adjusted as necessary to solubilize the compound. A control of the solution without the test compound was similarly injected into a control animal. […] Trunk blood was collected and allowed to clot. After centrifugation, serum was stored frozen prior to analysis. The whole brain was removed and frozen on dry ice for storage prior to analysis. The serum corticosterone concentration was measured spectrofluorometrically using the procedure of Solem and Brinck-Johnson, "An Evaluation of a Method for Determination of Free Corticosteroids in Minute Quantities of Mouse Plasma", Scand. J. Clin. Lab. Invest., Suppl. 80, p. 1-14 (1965), incorporated herein by reference. 5-Hydroxyindoleacetic acid (5HIAA) concentration in whole brain was measured by liquid chromatography with electrochemical detection as reported by Fuller and Perry, "Effects of Buspirone and its Metabolite, 1-(2-pyrimidinyl)piperazine, on Brain Monoamines and Their Metabolites in Rats", J. Pharmacol. Exp. Ther., 248, p. 50-56 (1989), incorporated herein by reference.

In the next data set the test system is rats. Nature of the data set: death of treated rats in the in vivo 5-hydroxyindole/corticosterone experiment. Particulars: 3 mg/kg s.c. The procedure:
In another experiment certain compounds of the Examples were evaluated to determine ability to affect the 5-hydroxyindoles serotonin and 5-hydroxyindole acetic acid (5HIAA), and serum corticosterone, in vivo. Male albino rats were injected subcutaneously with an aqueous solution of the compound. The pH of the solution was adjusted as necessary to solubilize the compound. A control of the solution without the test compound was similarly injected into a control animal. The rats were decapitated one hour later. Trunk blood was collected and allowed to clot. After centrifugation, serum was stored frozen prior to analysis. The whole brain was removed and frozen on dry ice for storage prior to analysis. The serum corticosterone concentration was measured spectrofluorometrically using the procedure of Solem and Brinck-Johnson, "An Evaluation of a Method for Determination of Free Corticosteroids in Minute Quantities of Mouse Plasma", Scand. J. Clin. Lab. Invest., Suppl. 80, p. 1-14 (1965), incorporated herein by reference. 5-Hydroxyindoleacetic acid (5HIAA) concentration in whole brain was measured by liquid chromatography with electrochemical detection as reported by Fuller and Perry, "Effects of Buspirone and its Metabolite, 1-(2-pyrimidinyl)piperazine, on Brain Monoamines and Their Metabolites in Rats", J. Pharmacol. Exp. Ther., 248, p. 50-56 (1989), incorporated herein by reference.

A further data set has as its system serotonin. Nature of the data set: whole brain serotonin concentration in vivo in rats. Particulars: 5 hrs before sacrifice.
Where [2] appears, read: 0.0003 mg/kg s.c., 1 hour, series 0.0003-0.03 mg/kg.
[3] abbreviates: 0.003 mg/kg s.c., 1 hour, series 0.0003-0.03 mg/kg.
Setting [4] is: 0.03 mg/kg s.c., 1 hour, series 0.0003-0.03 mg/kg.
The mark [5] stands for this setting: 0.03 mg/kg s.c., 1 hour, series 0.03-3 mg/kg.
[6] abbreviates: 0.3 mg/kg s.c., 1 hour, series 0.03-3 mg/kg.
Setting [7] is: 3 mg/kg s.c., 1 hour, series 0.03-3 mg/kg.

On to `CCCN(CCC)C1Cc2c[nH]c3ccc(C(C)=O)c(c23)C1` (racemic) [Example 2, (±)-6-Acetyl-4-(di-n-propylamino)-1,3,4,5-tetrahydrobenz[cd]indole], for which the 5HIAA in data set [1] (setting [2]) amounted to 2.21 ± 0.05 nmol/g; in data set [1] (setting [3]), 1.79 ± 0.10 nmol/g; in data set [1] (setting [4]) it was 1.95 ± 0.04 nmol/g; in data set [1] (setting [5]), 1.27 ± 0.01 nmol/g; in data set [1] (setting [6]) it was 1.10 ± 0.06 nmol/g; in data set [1] (setting [7]), 2.04 ± 0.02 nmol/g.

For the molecule `CCCN(CCC)[C@H]1Cc2c[nH]c3ccc(C(=O)C(C)C)c(c23)C1` [Example 9, (4R)-(+)-6-(2-methylpropanoyl)-4-(di-n-propylamino)-1,3,4,5-tetrahydrobenz[cd]indole], the 5HIAA in data set [1] (setting [2]) was 2.44 ± 0.06 nmol/g; in data set [1] (setting [3]), 2.23 ± 0.09 nmol/g; in data set [1] (setting [4]) it was 1.82 ± 0.08 nmol/g; in data set [1] (setting [5]), 1.38 ± 0.02 nmol/g; in data set [1] (setting [6]), 1.22 ± 0.04 nmol/g; in data set [1] (setting [7]), 1.38 ± 0.08 nmol/g.

As to `CCCN(CCC)[C@H]1Cc2c[nH]c3ccc(C(C)=O)c(c23)C1` [Example 7, (4R)-(+)-6-acetyl-4-(di-n-propylamino)-1,3,4,5-tetrahydrobenz[cd]indole], the 5HIAA in data set [1] (setting [2]) worked out at 1.93 ± 0.07 nmol/g; in data set [1] (setting [3]), 1.80 ± 0.05 nmol/g; in data set [1] (setting [4]), 1.34 ± 0.07 nmol/g; in data set [1] (setting [5]), 1.43 ± 0.02 nmol/g; in data set [1] (setting [6]), 1.37 ± 0.07 nmol/g. The “death of treated rats” value with rats was “dead within one hour”.

Take `CCCN(CCC)[C@@H]1Cc2c[nH]c3ccc(C(C)=O)c(c23)C1` [Example 8, (4S)-(-)-6-acetyl-4-(di-n-propylamino)-1,3,4,5-tetrahydrobenz[cd]indole]: the 5HIAA in data set [1] (setting [2]) worked out at 1.91 ± 0.08 nmol/g; in data set [1] (setting [3]), 1.47 ± 0.04 nmol/g; in data set [1] (setting [4]) it was 1.59 ± 0.10 nmol/g; in data set [1] (setting [5]), 1.31 ± 0.06 nmol/g; in data set [1] (0.1 mg/kg orally, 5 hrs before sacrifice), 1.67 ± 0.04 nmol/g; in data set [1] (0.3 mg/kg orally, 5 hrs before sacrifice), 1.60 ± 0.07 nmol/g. Moreover, the 5HIAA is 1.36 ± 0.04 nmol/g in data set [1] (setting [6]); 1.74 ± 0.05 nmol/g in data set [1] (1 mg/kg orally, 5 hrs before sacrifice); 1.31 ± 0.08 nmol/g in data set [1] (3 mg/kg orally, 5 hrs before sacrifice); 1.35 ± 0.04 nmol/g in data set [1] (setting [7]). The Serotonin is 2.77 ± 0.07 nmol/g in the data set on serotonin (0.1 mg/kg orally), 2.47 ± 0.07 nmol/g in the data set on serotonin (0.3 mg/kg orally), 2.86 ± 0.07 nmol/g in the data set on serotonin (1 mg/kg orally) and 2.68 ± 0.11 nmol/g in the data set with serotonin (3 mg/kg orally).
